In patent US7662404B2, “Transdermal delivery system for dried particulate or lyophilized peptides and polypeptides” (TransPharma Medical Ltd., priority 2002, dated 2010):
Read-outs that look alike come from different tables or passages of the source.

Assay: Plasma hPTH (1-34) in pigs as a function of patch application time (Example 14)
Type: in vivo
Conditions: male, large white, pig; for Cmax: read-out: Cmax AVG ± SD; for F rel: topical or ocular, compared to SC, read-out: % BIO AVG ± SD
Procedure: A printed patch containing 90 μg of hPTH (1-34) was placed over the application area and covered with Tegaderm. The patch was removed 1 hour, 1.5 hours, 2 hours or 8 hours after application, and the skin site was gently wiped to remove residual peptide. As a control group, pigs were injected s.c. with 0.2 ml FORTEO® (hPTH (1-34) purchased from Ely Lilly, Indianapolis, Ind., USA; 250 μg/ml) diluted to 100 μg/ml in the dorsal neck area (final dose was 20 μg per animal). Formulation: hPTH (1-34) (10 mg/ml): Trehalose (110 mg/ml) in 50 mM acetic acid, pH=4.
To determine the amount of hPTH(1-34) delivered to the blood of the treated pigs, blood samples were withdrawn at the indicated time points and the amount of hPTH(1-34) was measured by an ELISA kit (Immutopics, San-Clemente, Calif.).

AUC (sc, 20 ug, SC 20 ug): 0.237 ± 0.0273 ng·h/mL
Cmax (sc, 20 ug, SC 20 ug): 0.289 ± 0.0525 ng/mL
SMILES: CC[C@H](C)[C@H](NC(=O)[C@H](CCC(=O)O)NC(=O)[C@H](CO)NC(=O)[C@@H](NC(=O)[C@@H](N)CO)C(C)C)C(=O)N[C@@H](CCC(N)=O)C(=O)N[C@@H](CC(C)C)C(=O)N[C@@H](CCSC)C(=O)N[C@@H](Cc1cnc[nH]1)C(=O)N[C@@H](CC(N)=O)C(=O)N[C@@H](CC(C)C)C(=O)NCC(=O)N[C@@H](CCCCN)C(=O)N[C@@H](Cc1cnc[nH]1)C(=O)N[C@@H](CC(C)C)C(=O)N[C@@H](CC(N)=O)C(=O)N[C@@H](CO)C(=O)N[C@@H](CCSC)C(=O)N[C@@H](CCC(=O)O)C(=O)N[C@@H](CCCN=C(N)N)C(=O)N[C@H](C(=O)N[C@@H](CCC(=O)O)C(=O)N[C@@H](Cc1c[nH]c2ccccc12)C(=O)N[C@@H](CC(C)C)C(=O)N[C@@H](CCCN=C(N)N)C(=O)N[C@@H](CCCCN)C(=O)N[C@@H](CCCCN)C(=O)N[C@@H](CC(C)C)C(=O)N[C@@H](CCC(N)=O)C(=O)N[C@@H](CC(=O)O)C(=O)N[C@H](C(=O)N[C@@H](Cc1cnc[nH]1)C(=O)N[C@@H](CC(N)=O)C(=O)N[C@@H](Cc1ccccc1)C(=O)O)C(C)C)C(C)C [hPTH (1-34)]
Cmax (90 ug, TD 90 ug printed patch, removed after 1 h): 0.0772 ± 0.0358 ng/mL
Cmax (90 ug, TD 90 ug printed patch, removed after 1.5 h): 0.179 ± 0.0658 ng/mL
Cmax (90 ug, TD 90 ug printed patch, removed after 2 h): 0.137 ± 0.0431 ng/mL
Cmax (90 ug, TD 90 ug printed patch, removed after 8 h): 0.128 ± 0.0524 ng/mL
AUC (90 ug, TD 90 ug, 1 h): 0.232 ± 0.0418 ng·h/mL
AUC (90 ug, TD 90 ug, 1.5 h): 0.296 ± 0.0716 ng·h/mL
AUC (90 ug, TD 90 ug, 2 h): 0.272 ± 0.0545 ng·h/mL
AUC (90 ug, TD 90 ug, 8 h): 0.331 ng·h/mL
F rel (90 ug, TD 90 ug, 1 h): 22.4 ± 6.97%
F rel (90 ug, TD 90 ug, 1.5 h): 28.5 ± 9.36%
F rel (90 ug, TD 90 ug, 2 h): 26.2 ± 8.42%
F rel (90 ug, TD 90 ug, 8 h): 31.6 ± 9.03%
